Data taken from patent US20210115104A1, “AMYLIN ANALOGUES” (Zealand Pharma A/S, priority 2015, published 2021).
pEC50: −log10 of the molar value. *1 amine or outer side, *2 acyl side, *3 side chain or, on linkers, in order; H or OH if unused. Where a SMILES comes first, the peptide text is derived from it. Bridges are numbered along the chain shown (N, C = ends). [ ]: non-standard residue; d: D form. The star is where a group is joined. C20 diacid = O=C(O)CCCCCCCCCCCCCCCCCCC(=O)*; γGlu = O=C(O)[C@H](CCC(=O)[*:2])N[*:1]; Hyp = O=C(O)[C@@H]1C[C@@H](O)CN1; NMeI = CC[C@H](C)[C@H](NC)C(=O)O; Aad = N[C@@H](CCCC(=O)O)C(=O)O; Sar = CNCC(=O)O

How the values were obtained:
[1] = Assessment of physical stability (Thioflavin T fibrillation); type: physicochemical; set-up: key: FND = fibrillation not detected; FD = fibrillation detected; conditions: 1 mg/ml, 40° C., ThT; for Fibrillation pH 4.0 (Ac): 50 mM acetate buffer pH 4.0, 96 hours; for Fibrillation pH 7.0 (His): 50 mM histidine buffer pH 7.0, 96 hours; for Fibrillation pH 7.0 (Phos.): 50 mM phosphate buffer pH 7.0, 96 hours
Procedure, shortened: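 Fibrillation lag-time, in hours, taken where regressions of the initial stable phase and the growth phase intersect. ThT (40 μM) fluorescence monitored at 40 °C for 96 h, 10-min reads each preceded by 300 s mixing. Peptide at 1 mg/ml in 50 mM buffers: phosphate or histidine pH 7.0, acetate pH 4.0.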

[2] = target: T1, human amylin receptor 3 (hAMYR3), hCTR2 co-expressed with hRAMP3 (Homo sapiens, UniProt O60896+P30988); experiment: hAMYR3 cAMP assay (AlphaScreen) in COS7 cells; type: cell-based; conditions: cAMP induction, COS7 cells expressing hAMYR3; Table 1; read-out: hAMYR3 EC50
T1 construct: expressed in transfected cells
T1 sequence (P30988 25-474): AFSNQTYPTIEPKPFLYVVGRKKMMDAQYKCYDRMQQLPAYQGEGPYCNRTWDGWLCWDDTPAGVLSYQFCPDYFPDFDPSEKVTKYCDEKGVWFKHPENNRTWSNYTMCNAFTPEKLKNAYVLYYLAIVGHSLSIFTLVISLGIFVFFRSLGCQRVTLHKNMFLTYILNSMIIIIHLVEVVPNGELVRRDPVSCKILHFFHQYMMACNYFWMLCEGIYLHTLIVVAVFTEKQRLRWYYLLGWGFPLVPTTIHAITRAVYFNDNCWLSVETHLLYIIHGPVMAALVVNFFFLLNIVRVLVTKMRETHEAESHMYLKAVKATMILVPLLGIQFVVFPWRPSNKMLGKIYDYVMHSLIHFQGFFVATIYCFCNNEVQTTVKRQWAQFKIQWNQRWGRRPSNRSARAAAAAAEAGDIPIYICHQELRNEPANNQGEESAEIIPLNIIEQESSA
T1 sequence (O60896 24-148 partner): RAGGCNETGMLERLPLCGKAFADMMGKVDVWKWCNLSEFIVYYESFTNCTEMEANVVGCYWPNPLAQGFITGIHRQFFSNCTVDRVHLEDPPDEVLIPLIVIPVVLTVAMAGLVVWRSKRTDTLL
Procedure, shortened: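 EC50 values derive from 4PL curve fits of cAMP (AlphaScreen) in lysates of RAMP-naive COS7 cells stably carrying hCTR2 plus hRAMP3. Peptide dilution series were applied for 15 min at 37 °C in pH 7.4 Tyrode buffer containing 100 µM IBMX and 0.1% casein.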

[3] = target: T2, human calcitonin receptor (hCTR2) (Homo sapiens, UniProt P30988); experiment: hCTR2 cAMP assay (AlphaScreen) in COS7 cells; type: cell-based; conditions: cAMP induction, COS7 cells expressing hCTR2; Table 1; read-out: hCTR2 EC50
T2 construct: expressed in transfected cells
T2 sequence (P30988 25-474): T1 sequence (P30988 25-474)
Procedure, shortened: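 cAMP induction, read by AlphaScreen after lysis, gives EC50 values via 4PL curve fitting. Peptides were applied at rising concentrations for 15 min at 37 °C, with IBMX and 0.1% casein in HEPES-buffered Tyrode pH 7.4, to COS7 cells (no endogenous RAMPs) stably expressing human CTR2.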

[4] = Assessment of chemical stability (RP-HPLC normalized purity); type: physicochemical; conditions: 7 days, 40° C., Table 1; for Normalized purity after 7 days, 40° C., pH 4: pH 4, 0.2 mg/ml; for Normalized purity after 7 days, 40° C., pH 6: pH 6, 0.2 mg/ml; for Normalized purity after 7 days, 40° C., pH 7.5: pH 7.5, 0.2 mg/ml; for Normalized purity after 7 days, 40° C., pH 9: pH 9, 0.2 mg/ml
Procedure, shortened: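 Purity after 7 days at 40° C is expressed relative to T=0 (set to 100) for each pH. Samples at 0.2 mg/ml, pH 4, 6, 7.5 or 9, analyzed by RP-HPLC with UV 220 nm on C8 (ammonium formate) or C18 (TFA) gradients.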

| Structure (SMILES) | Fibrillation pH 4.0 (Ac) [1] | Fibrillation pH 7.0 (His) [1] | Fibrillation pH 7.0 (Phos.) [1] | pEC50 [2] | pEC50 [3] | Normalized purity after 7 days, 40° C., pH 4 [4] | Normalized purity after 7 days, 40° C., pH 6 [4] | Normalized purity after 7 days, 40° C., pH 7.5 [4] | Normalized purity after 7 days, 40° C., pH 9 [4] |
| --- | --- | --- | --- | --- | --- | --- | --- | --- | --- |
| CC[C@H](C)[C@@H](C(=O)N[C@@H](CC(C)C)C(=O)N[C@@H](CO)C(=O)N[C@@H](CO)C(=O)N[C@H](C(=O)N[C@@H](CCC(=O)O)C(=O)N[C@H](C(=O)NCC(=O)N[C@@H](CO)C(=O)NCC(=O)N[C@H](C(=O)N1C[C@H](O)C[C@H]1C(N)=O)[C@@H](C)O)C(C)C)[C@@H](C)O)N(C)C(=O)[C@H](C)NC(=O)CN(C)C(=O)[C@H](Cc1ccccc1)NC(=O)[C@H](CO)NC(=O)[C@H](CO)NC(=O)[C@H](CCCNC(=N)N)NC(=O)[C@H](CCC(N)=O)NC(=O)[C@H](CC(C)C)NC(=O)[C@H](Cc1ccccc1)NC(=O)[C@H](Cc1c[nH]cn1)NC(=O)[C@H](C)NC(=O)[C@H](CC(C)C)NC(=O)[C@H](CCCNC(=N)N)NC(=O)[C@H](CCC(=O)O)NC(=O)[C@@H](NC(=O)[C@H](C)NC(=O)[C@@H]1CSSC[C@H](NC(=O)[C@H](CCCNC(=N)N)NC(=O)CC[C@H](NC(=O)CCCCCCCCCCCCCCCCCCC(=O)O)C(=O)O)C(=O)NCC(=O)N[C@@H]([C@@H](C)O)C(=O)N[C@@H](C)C(=O)N[C@@H]([C@@H](C)O)C(=O)N1)[C@@H](C)O [Compound 52, [19CD]-isoGlu-R-C( )-GTAT-C( )-ATERLAHFLQRSSF-Gly(Me)-A-Ile(Me)-LSSTEVGSGT-Hyp-NH2] ({C20 diacid-γGlu}-RCGTATCATERLAHFLQRSSF[Sar]A[NMeI]LSSTEVGSGT[Hyp]-NH2; disulfide 2-7) | FND | FND | FND | 10.05 | 10.15 | A (A = >90%) | B (B = 70-90%) | B (B = 70-90%) | B (B = 70-90%) |
| CC[C@H](C)[C@@H](C(=O)N[C@@H](CC(C)C)C(=O)N[C@@H](CO)C(=O)N[C@@H](CO)C(=O)N[C@H](C(=O)N[C@@H](CCC(=O)O)C(=O)N[C@H](C(=O)NCC(=O)N[C@@H](CO)C(=O)N[C@@H](CCCC(=O)O)C(=O)N[C@H](C(=O)N1C[C@H](O)C[C@H]1C(N)=O)[C@@H](C)O)C(C)C)[C@@H](C)O)N(C)C(=O)[C@H](C)NC(=O)CN(C)C(=O)[C@H](Cc1ccccc1)NC(=O)[C@H](CO)NC(=O)[C@H](CO)NC(=O)[C@H](CCCNC(=N)N)NC(=O)[C@H](CCC(N)=O)NC(=O)[C@H](CC(C)C)NC(=O)[C@H](Cc1ccccc1)NC(=O)[C@H](Cc1c[nH]cn1)NC(=O)[C@H](C)NC(=O)[C@H](CC(C)C)NC(=O)[C@H](CCCNC(=N)N)NC(=O)[C@H](CCC(=O)O)NC(=O)[C@@H](NC(=O)[C@H](C)NC(=O)[C@@H]1CSSC[C@H](NC(=O)[C@H](CCCNC(=N)N)NC(=O)CC[C@H](NC(=O)CCCCCCCCCCCCCCCCCCC(=O)O)C(=O)O)C(=O)NCC(=O)N[C@@H]([C@@H](C)O)C(=O)N[C@@H](C)C(=O)N[C@@H]([C@@H](C)O)C(=O)N1)[C@@H](C)O [Compound 53, [19CD]-isoGlu-R-C( )-GTAT-C( )-ATERLAHFLQRSSF-Gly(Me)-A-Ile(Me)-LSSTEVGS-Aad-T-Hyp-NH2] ({C20 diacid-γGlu}-RCGTATCATERLAHFLQRSSF[Sar]A[NMeI]LSSTEVGS[Aad]T[Hyp]-NH2; disulfide 2-7) | FND | FND | FND | 9.89 | 9.85 | A (A = >90%) | A (A = >90%) | B (B = 70-90%) | B (B = 70-90%) |
| CC[C@H](C)[C@@H](C(=O)N[C@@H](CC(C)C)C(=O)N[C@@H](CO)C(=O)N[C@@H](CO)C(=O)N[C@H](C(=O)N[C@@H](CCC(=O)O)C(=O)N[C@H](C(=O)NCC(=O)N[C@@H](CO)C(=O)N[C@@H](CC(N)=O)C(=O)N[C@H](C(=O)N1C[C@H](O)C[C@H]1C(N)=O)[C@@H](C)O)C(C)C)[C@@H](C)O)N(C)C(=O)[C@H](C)NC(=O)CN(C)C(=O)[C@H](Cc1ccccc1)NC(=O)[C@H](CO)NC(=O)[C@H](CO)NC(=O)[C@H](CCCNC(=N)N)NC(=O)[C@H](CCC(N)=O)NC(=O)[C@H](CC(C)C)NC(=O)[C@H](Cc1ccccc1)NC(=O)[C@H](CC(=O)O)NC(=O)[C@H](C)NC(=O)[C@H](CC(C)C)NC(=O)[C@H](CCCNC(=N)N)NC(=O)[C@H](CCC(=O)O)NC(=O)[C@@H](NC(=O)[C@H](C)NC(=O)[C@@H]1CSSC[C@H](NC(=O)[C@H](CCCNC(=N)N)NC(=O)CC[C@H](NC(=O)CCCCCCCCCCCCCCCCCCC(=O)O)C(=O)O)C(=O)NCC(=O)N[C@@H]([C@@H](C)O)C(=O)N[C@@H](C)C(=O)N[C@@H]([C@@H](C)O)C(=O)N1)[C@@H](C)O [Compound 54, [19CD]-isoGlu-R-C( )-GTAT-C( )-ATERLADFLQRSSF-Gly(Me)-A-Ile(Me)-LSSTEVGSNT-Hyp-NH2] ({C20 diacid-γGlu}-RCGTATCATERLADFLQRSSF[Sar]A[NMeI]LSSTEVGSNT[Hyp]-NH2; disulfide 2-7) | FND | FND | FND | 9.85 | 10.10 | A (A = >90%) | A (A = >90%) | B (B = 70-90%) | B (B = 70-90%) |
| CC[C@H](C)[C@@H](C(=O)N[C@@H](CC(C)C)C(=O)N[C@@H](CO)C(=O)N[C@@H](CO)C(=O)N[C@H](C(=O)N[C@@H](CCC(=O)O)C(=O)N[C@H](C(=O)NCC(=O)N[C@@H](CO)C(=O)N[C@@H](CC(N)=O)C(=O)N[C@H](C(=O)N1C[C@H](O)C[C@H]1C(N)=O)[C@@H](C)O)C(C)C)[C@@H](C)O)N(C)C(=O)[C@H](C)NC(=O)CN(C)C(=O)[C@H](Cc1ccccc1)NC(=O)[C@H](CO)NC(=O)[C@H](CO)NC(=O)[C@H](CCCNC(=N)N)NC(=O)[C@H](CCC(N)=O)NC(=O)[C@H](CC(C)C)NC(=O)[C@H](Cc1ccccc1)NC(=O)[C@H](Cc1c[nH]cn1)NC(=O)[C@H](C)NC(=O)[C@H](CC(C)C)NC(=O)[C@H](CCCNC(=N)N)NC(=O)[C@H](CCC(=O)O)NC(=O)[C@@H](NC(=O)[C@H](C)NC(=O)[C@@H]1CSSC[C@H](NC(=O)[C@H](CCCNC(=N)N)NC(=O)CC[C@H](NC(=O)CCCCCCCCCCCCCCCCCCC(=O)O)C(=O)O)C(=O)N[C@@H](CC(N)=O)C(=O)N[C@@H]([C@@H](C)O)C(=O)N[C@@H](C)C(=O)N[C@@H]([C@@H](C)O)C(=O)N1)[C@@H](C)O [Compound 56, [19CD]-isoGlu-R-C( )-NTAT-C( )-ATERLAHFLQRSSF-Gly(Me)-A-Ile(Me)-LSSTEVGSNT-Hyp-NH2] ({C20 diacid-γGlu}-RCNTATCATERLAHFLQRSSF[Sar]A[NMeI]LSSTEVGSNT[Hyp]-NH2; disulfide 2-7) | FND | FND | FND | 10.10 | 10.22 | A (A = >90%) | A (A = >90%) | A (A = >90%) | B (B = 70-90%) |
